Experiments:
[1] = molecular target: Integrin alpha-IIb/beta-3 (Homo sapiens) (UniProt P05106+P08514); experiment: Evaluated for competitive binding against fibrinogen receptor antagonist [125I]-L-692,884 to purified alpha IIb beta-3 integrin activated by coating onto yttrium silicate Scintillation Proximity Assay Fluomicrospheres (SPA-A assay).; assay type: protein-complex assay
Homo sapiens = species: Homo sapiens; experiment: Inhibition of ADP-induced platelet aggregation in human gel-filtered platelets; assay type: functional
Albumin [2] = molecular target: T1, Albumin (Homo sapiens, UniProt P02768); experiment: Protein Binding Assay measures the ability of a compound to bind to human albumin in pH 7.4 buffer.
Albumin [3] = molecular target: T1, Albumin; experiment: Protein Binding Assay measures the ability of a compound to bind to human albumin in pH 7.4 buffer.; not soluble

T1 sequence (P02768 whole entry): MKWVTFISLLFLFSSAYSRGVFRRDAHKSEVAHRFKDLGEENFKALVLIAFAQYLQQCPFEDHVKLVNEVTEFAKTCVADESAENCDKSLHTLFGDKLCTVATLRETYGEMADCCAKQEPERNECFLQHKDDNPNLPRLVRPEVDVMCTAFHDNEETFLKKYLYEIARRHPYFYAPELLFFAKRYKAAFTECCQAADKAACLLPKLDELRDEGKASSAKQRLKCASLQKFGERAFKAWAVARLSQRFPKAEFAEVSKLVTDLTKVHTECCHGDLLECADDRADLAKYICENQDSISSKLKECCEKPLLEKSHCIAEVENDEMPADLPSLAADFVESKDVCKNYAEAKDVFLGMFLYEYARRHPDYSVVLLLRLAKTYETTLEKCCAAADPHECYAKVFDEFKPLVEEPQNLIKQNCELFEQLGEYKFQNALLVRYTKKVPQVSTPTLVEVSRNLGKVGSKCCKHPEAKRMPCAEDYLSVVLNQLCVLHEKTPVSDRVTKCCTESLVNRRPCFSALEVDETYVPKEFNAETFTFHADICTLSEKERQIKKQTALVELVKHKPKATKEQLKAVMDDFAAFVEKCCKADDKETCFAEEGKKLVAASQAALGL

Row | ED50 [1] [nM] | IC50 (Homo sapiens) [nM] | Binding (Albumin [2]) [%] | Binding (Albumin [3]) | Structure (SMILES)
1 | 0.13 | 12 | 57 |  | O=C(NC[C@H](NS(=O)(=O)c1ccccc1)C(=O)O)c1cc2cc(OCCN3CCNCC3)ccc2[nH]1
2 | 0.06 | 6 | 85 |  | Cc1ccc(S(=O)(=O)N[C@@H](CNC(=O)c2cc3cc(OCC4CCNCC4)ccc3[nH]2)C(=O)O)cc1
3 | 0.099 | 13 | 66 |  | O=C(NC[C@H](NS(=O)(=O)c1ccccc1)C(=O)O)c1cc2cc(OCC3CCNCC3)ccc2[nH]1
4 | 2 | 100 | 98 |  | O=C(NC[C@H](NS(=O)(=O)c1ccccc1)C(=O)O)c1cc2cc(OCCCc3c[nH]cn3)ccc2[nH]1
5 | 0.07 | 45 | 99 |  | Nc1cc(COc2ccc3[nH]c(C(=O)NC[C@H](NS(=O)(=O)c4ccccc4)C(=O)O)cc3c2)ccn1
6 |  | 15 | 94 |  | Cn1c(C(=O)NC[C@H](NS(=O)(=O)c2ccccc2)C(=O)O)cc2cc(OCC3CCNCC3)ccc21
7 | 0.04 | 17 | 63 |  | CC1(C)C2CCC1(CS(=O)(=O)N[C@@H](CNC(=O)c1cc3cc(OCC4CCNCC4)ccc3[nH]1)C(=O)O)C(=O)C2 (stereo not given in full)
8 | 0.07 | 12 |  |  | O=C(NC[C@H](NS(=O)(=O)c1cccnc1)C(=O)O)c1cc2cc(OCC3CCNCC3)ccc2[nH]1
9 | 0.49 | 15 | 57 |  | O=C(NC[C@H](NS(=O)(=O)c1ccccc1)C(=O)O)c1cc2ccc(OCC3CCNCC3)cc2[nH]1
10 |  | 5700 |  | Insoluble | O=C(Cc1c[nH]c2ccc(OCC3CCNCC3)cc12)NC[C@H](NS(=O)(=O)c1ccccc1)C(=O)O
11 | 170 | 1000 | 52 |  | O=C(O)CCNC(=O)c1cc2cc(OCC3CCNCC3)ccc2[nH]1
12 | 0.28 | 45 | 98 |  | O=C(NC[C@H](NS(=O)(=O)c1ccccc1)C(=O)O)c1cc2cc(OCCn3ccnc3)ccc2[nH]1
13 | 0.056 | 8 | 76 |  | O=C(NC[C@H](NS(=O)(=O)c1ccccc1)C(=O)O)c1cc2cc(OCCC3CCNCC3)ccc2[nH]1
14 |  | 150 |  | Insoluble | O=C(NC[C@H](NS(=O)(=O)c1ccccc1)C(=O)O)c1cc2cc(OCC3CCNCC3)ccc2n1Cc1ccccc1
15 | 0.25 | 280 | 99 |  | O=C(NC[C@H](NS(=O)(=O)c1ccccc1)C(=O)O)c1cc2cc(OCc3ccncc3)ccc2[nH]1
16 |  | 21 | 94 |  | Cn1c(C(=O)NC[C@H](NS(=O)(=O)c2ccccc2)C(=O)O)cc2cc(OCCC3CCNCC3)ccc21
17 |  | 810 | 47 |  | O=C(O)CC(NC(=O)c1cc2cc(OCC3CCNCC3)ccc2[nH]1)c1cccnc1 (stereo not given)

From ChEMBL document CHEMBL1151560, “Nonpeptide glycoprotein IIb/IIIa inhibitors: 18. Indole alpha-sulfonamide acids are potent inhibitors of platelet aggregation” (Bioorg Med Chem Lett, 1997)
